In patent publication US8026255B2, “Substituted piperidines as somatostatin receptor subtype 5 (SSTR5) antagonists” (Hoffman-La Roche Inc., priority 2006, dated 2011):

Molecular target: T1, human subtype 5 somatostatin receptor (Homo sapiens, UniProt P35346)
T1 construct: host or cells: CHO cells, stably transfected; membranes prepared from them
Experiment: SSTR5 radioligand binding assay (membranes of transfected CHO cells, 125I-labeled 11-Tyr somatostatin-14 tracer)
Conditions: CHO cell membranes, Ki calculated from IC50 by Cheng-Prussoff equation
Experimental: A CHO cell line stably transfected with a plasmid encoding the human subtype 5 somatostatin receptor (GenBank accession number D16827) was obtained from Euroscreen. Cells were cultured and used for binding and functional assays.
Membranes of these cells were prepared by sonication in the presence of protease inhibitors and subsequent fractionating centrifugation. The protein concentration in the membrane preparation was determined using a commercial kit (BCA kit, Pierce, USA). Membranes were stored at −80° C. until use. After thawing, membranes were diluted in assay buffer (50 mM Tris-HCl at pH 7.4, 5 mM MgCl2 and 0.20% BSA) and subjected to dounce homogenization.
For binding studies, 0.1 mL membrane suspension, corresponding to app. 6×10^−15 mol receptor, was incubated for 1 h at room temperature with 0.05 nM ^125I-labeled tracer (11-Tyr somatostatin-14, Perkin-Elmer) and either test compounds in varying concentrations or, for the determination of non-specific binding, 0.001 mM non-labeled somatostatin-14. The incubation was stopped by filtration through GF/B glassfiber filters and washing with ice-cold wash buffer (50 mM Tris-HCl at pH 7.4). The bound radioactivity was measured after application of a scintillation cocktail (Microscint 40) and expressed as disintegrations per minute (dpm).
The receptor concentration was determined in a prior saturation experiment where a fixed, arbitrary amount of membranes was incubated with a concentration range of radio-labeled tracer. This allows estimating the total number of specific binding sites per amount of protein (i.e., Bmax), typically between 1 and 5 pmol/mg.
The concentration of the test compound required to result in half maximal inhibition of binding of the radio-labeled tracer (IC50) was estimated from a concentration-versus-dpm graph. The binding affinity (Ki) was calculated from the IC50 by applying the Cheng-Prussoff equation for single binding sites.

T1 sequence (P35346 whole entry): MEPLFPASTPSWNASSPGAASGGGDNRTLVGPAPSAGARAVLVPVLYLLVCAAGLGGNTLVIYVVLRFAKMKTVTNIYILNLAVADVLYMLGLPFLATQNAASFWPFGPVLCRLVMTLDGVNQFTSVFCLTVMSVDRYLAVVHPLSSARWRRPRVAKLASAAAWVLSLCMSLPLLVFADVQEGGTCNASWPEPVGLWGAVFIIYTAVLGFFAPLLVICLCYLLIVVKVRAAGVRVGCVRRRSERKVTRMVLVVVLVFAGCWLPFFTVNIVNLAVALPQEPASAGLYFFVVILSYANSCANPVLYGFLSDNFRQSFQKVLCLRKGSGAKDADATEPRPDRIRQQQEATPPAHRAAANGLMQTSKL

With `CCOc1cc(CN2CCC(Nc3ccc4ccccc4n3)CC2)cc(OCC)c1F` [Example 103, [1-(3,5-diethoxy-4-fluoro-benzyl)-piperidin-4-yl]-quinolin-2-yl-amine] the Ki was 7 nM.
For `CCOc1cc(CN2CCC(Nc3cnc(C(N)=O)cn3)CC2)ccc1Cl` [Example 205, 5-[1-(4-Chloro-3-ethoxy-benzyl)-piperidin-4-ylamino]-pyrazine-2-carboxylic acid amide], the Ki was 86 nM.
For `CCOc1cc(CN2CCC(Nc3nc(C)c(-c4ccccc4)cc3C#N)CC2)ccc1OC` [Example 24, 2-[1-(3-ethoxy-4-methoxy-benzyl)-piperidin-4-ylamino]-6-methyl-5-phenyl-nicotinonitrile], the Ki was 789 nM.
